Data: patent publication US20260355177A1, “TREATMENT FOR APLASTIC ANEMIA (AA)” (ZYDUS LIFESCIENCES LIMITED, priority 2022, published 2026)

Assays:
[1] = system: cyclophosphamide-induced aplastic anemia in C57 mice; test: Cyclophosphamide-induced aplastic anemia in C57 mice: white blood cell (WBC) and platelet count; assay type: in vivo; details: after 11 days of treatment; Formula (Ia) 15 mg/kg PO daily; Romiplostim 30 μg/kg SC once a week; mean±SEM, n=6
Method: Aplastic anemia (AA) was induced in C57 mice by administration of cyclophosphamide. Cyclophosphamide was dissolved in deionized water at concentrations of 20 mg/mL. Immediately before administration, deionized water was added to the stock solution and the solution was given by intraperitoneal (ip) injection at dose of 100 mg/kg. Mice were dosed with vehicle or cyclophosphamide for 4 days. Control mice were given vehicle at the same dose volume.^10 Compound of formula (Ia) (15 mg/kg, PO, daily) and Romiplostim (30 μg/kg, SC, once a week) combination were administered.
Blood was collected from each group after 11 days of treatment. The changes in the white blood cell (WBC) and platelet count were measured. Data are mean±SEM (n=6 for each group).

[2] = system: busulphan-induced aplastic anemia in Balb/c mice; test: Busulphan-induced aplastic anemia in Balb/c mice: white blood cell (WBC) and platelet count; assay type: in vivo; details: after 44 days of treatment; Formula (Ia) 15 mg/kg PO daily; Romiplostim 50 μg/kg SC once a week; mean±SEM, n=6
Method: Aplastic anemia (AA) was induced in BALB/c mice by administration of busulphan (BU). BU was dissolved in acetone at concentrations of 5-10 mg/mL. Immediately before administration, deionized water was added to the BU-acetone solution and the solution was given by intraperitoneal (ip) injection at dose of 9 mg/kg. Control mice were given vehicle at the same dose volume.^9 Compound of formula (Ia) (15 mg/kg, PO, daily) and Romiplostim (50 μg/kg, SC, once a week) combination were administered.
Mice were be dosed with vehicle or BU on 10 occasions over a period of 21 days (days 1, 3, 6, 8, 10, 13, 15, 17, 19 and 21). Between 1 to 127 days after the final BU dose, mice from each group were autopsied for blood.^9
The changes in the white blood cell (WBC) and platelet count were measured after 44 days of treatment. Data are mean±SEM (n=6 for each group).

## O=C(O)CNC(=O)c1c(O)c2ccccc2n(OCC2CC2)c1=O [Formula (Ia)]
[1]
  Platelets: 742.3 10^3/uL
  Platelets % Change against vehicle control: 32.1%
  WBC: 7.0 10^3/uL
  WBC % Change against vehicle control: 10.1%
[2]
  Platelets: 676.2 10^3/uL
  Platelets % Change against vehicle control: 30.6%
  WBC: 2.6 10^3/uL
  WBC % Change against vehicle control: 10.9%

## Romiplostim
[2]
  Platelets: 1257.0 10^3/uL
  Platelets % Change against vehicle control: 142.7%
  WBC: 4.2 10^3/uL
  WBC % Change against vehicle control: 79.3%
